Reference: patent US7872005B2, “2-substituted heteroaryl compounds” (Synta Pharmaceuticals Corporation, priority 2004, dated 2011)

System: IL-12 production in human PBMC or THP-1 cells
Test: In vitro inhibition of IL-12 production in stimulated human PBMC or THP-1 cells (ELISA)
Type: cell-based
Conditions: representative in vitro IC50 data
Description: The biological activities of a heterocyclic compound can be evaluated by a number of cell-based assays. One of such assays can be conducted using cells from human peripheral blood mononuclear cells (PBMC) or human monocytic cell line (THP-1). The cells are stimulated with a combination of human interferon-γ (IFNγ) and lipopolysaccharide or a combination of IFNγ and Staphylococcus aureus Cowan I in the presence of a test compound. The level of inhibition of IL-12 production can be measured by determining the amount of p70 by using a sandwich ELISA assay with anti-human IL-12 antibodies. IC50 of the test compound can then be determined. Specifically, PBMC or THP-1 cells are incubated with the test compound. Cell viability was assessed using the bioreduction of MTS [3-(4,5-dimethylthiazol-2-yl)-5-(3-carboxymethoxyphenyl)-2-(4-sulfophenyl)-2H-tetrazolium] (Promega, Madison, Wis.).
Reagents. Staphylococcus aureus Cowan I (SAC) was obtained from Calbiochem (La Jolla, Calif.), and lipopolysaccharide (LPS, Serratia marscencens) was obtained from Sigma (St. Louis, Mo.). Human and mouse recombinant IFNγ were purchased from Boehringer Mannheim (Mannheim, Germany) and Pharmingen (San Diego, Calif.), respectively.
Human In Vitro Assay. Human PBMC were isolated by centrifugation using Ficoll-Paque (Pharmacia Biotech, Uppsala, Sweden) and prepared in RPMI medium supplemented with 10% fetal calf serum (FCS), 100 U/mL penicillin, and 100 μg/mL streptomycin. PBMC were plated in wells of a 96-well plate at a concentration of 5×10^5 cells/well, and primed by adding IFNγ (30 U/mL) for 22 h and stimulated by adding LPS (1 μg/mL), or by adding IFNγ (100 U/mL) and then stimulated by adding SAC (0.01%). A test pyrimidine compound was dissolved in DMSO, and added to wells of the 96-well plate. The final DMSO concentration was adjusted to 0.25% in all cultures, including the compound-free control. Human THP-1 cells were plated in wells, primed by adding IFNγ (100 U/mL) for 22 h and stimulated by adding SAC (0.025%) in the presence of different concentrations of the pyrimidine compound. Cell-free supernatants were taken 18 h later for measurement of cytokines. Cell viability was assessed using the bioreduction of MTS. Cell survival was estimated by determining the ratio of the absorbance in compound-treated groups versus compound-free control.
The supernatant was assayed for the amount of IL-12p40, IL-12p70, or IL-10 by using a sandwich ELISA with anti-human antibodies, i.e., a Human IL-12 p40 ELISA kit from R&D Systems (Berkeley, Calif.), and a Human IL-12 p70 or IL-10 ELISA kit from Endogen (Cambridge, Mass.). Assays were based on the manufacturer's instructions.
The biological activities of pyrimidine compounds were tested on human PBMC or THP-1 cells. Unexpectedly, some of the test compounds have IC50 values as low as <1 nM.

Cc1cccc(/C=N/Nc2cc(N3CCOCC3)nc(OCC(C)(C)OC(=O)Nc3cccc(C(F)(F)F)c3)n2)c1 [Compound 28, (3-Trifluoromethyl-phenyl)-carbamic acid 1,1-dimethyl-2-{4-[N′-(3-methyl-benzylidene)-hydrazino]-6-morpholin-4-yl-pyrimidin-2-yloxy}-ethyl ester] showed an IC50 of less than 25 nM.

Molecule Cc1cccc(/C=N/Nc2cc(N3CCOCC3)nc(CC(C)(C)OC(=O)Nc3cccc(C(F)(F)F)c3)n2)c1 [Compound 29, (3-Trifluoromethyl-phenyl)-carbamic acid 1,1-dimethyl-2-{4-[N′-(3-methyl-benzylidene)-hydrazino]-6-morpholin-4-yl-pyrimidin-2-yl}-ethyl ester] has an IC50 greater than 50 nM.

Cc1cccc(/C=N/Nc2cc(N3CCOCC3)nc(CC(C)(C)OC(=O)Nc3ccc(C(F)(F)F)cc3)n2)c1 [Compound 30, (4-Trifluoromethyl-phenyl)-carbamic acid 1,1-dimethyl-2-{4-[N′-(3-methyl-benzylidene)-hydrazino]-6-morpholin-4-yl-pyrimidin-2-yl}-ethyl ester] showed an IC50 of less than 25 nM.

Cc1cccc(/C=N/Nc2cc(N3CCOCC3)nc(CCNS(=O)(=O)N(C)C)n2)c1 [Compound 54, 1,1-Dimethyl-3-(2-{4-[N′-(3-methyl-benzylidene)-hydrazino]-6-morpholin-4-yl-pyrimidin-2-yl}-ethyl)-sulfamide] showed an IC50 of less than 25 nM.

Work on Cc1cccc(/C=N/Nc2cc(N3CCOCC3)nc(OCCOC(=O)Nc3cccnc3)n2)c1 [Compound 106, Pyridin-3-yl-carbamic acid 2-{4-[N′-(3-methyl-benzylidene)-hydrazino]-6-morpholin-4-yl-pyrimidin-2-yloxy}-ethyl ester] yielded an IC50 of less than 25 nM.
